One series concerns S. flexneri SDINT. The series is described as follows: Broth microdilution MIC/MBC. In kind it is cell-based, Shigella flexneri. On the procedure: (§1) A total of six bacterial strains were tested for their susceptibility to compounds and these strains were taken from our laboratory collection (kindly provided by Dr. T. Ramamurthy, NICED, Kolkata). Among the clinical strains of Vibrio cholerae used in this study, strains NB2 and SG24 and CO6 belonged to O1 and O139 serotypes, respectively. […]. The other strains used in this study were V. cholerae non-O1, non-O139 (strain PC2); […]. The American Type Culture Collection (ATCC) strain, Staphylococcus aureus ATCC 25923, was used for quality control. The bacterial strains were maintained on agar slant at 4 °C and subcultured on a fresh appropriate agar plates 24 h prior to any antibacterial test. The Mueller Hinton Agar (MHA) was used for the activation of bacteria. The Mueller Hinton Broth (MHB) and nutrient agar (Hi-Media) were used for the MIC and MBC determinations respectively.
(§2) Suspensions of bacteria were prepared in MHB from cells arrested during their logarithmic phase growth (4 h) on MHB at 37 °C. The turbidity of the microbial suspension was read spectrophotometrically at 600 nm and adjusted to an OD of 0.1 with MHB, which is equivalent to 1 × 10^8 CFU/mL. From this prepared solution, other dilutions were made with MHB to yield 1x10^6 CFU/mL.
(§3) MIC and MBC of compounds 1–3 were assessed using the broth microdilution method recommended by the National Committee for Clinical Laboratory Standards with slight modifications. Each test sample was dissolved in dimethylsulfoxide (DMSO) to give a stock solution. The 96-well round bottom sterile plates were prepared by dispensing 180 μL of the inoculated broth (1x10^6 CFU/mL) into each well. A 20 μL aliquot of the stock solution of compound was added. The concentrations of sample tested were 0.125, 0.25, 0.50, 1, 2, 4, 8, 16, 32, 64, 128, 256 and 512 μg/mL. […] Dilutions of tetracycline and ampicillin served as positive controls, while broth with 20 μL of DMSO was used as negative control. The ATCC strain Staphylococcus aureus ATCC 25923 was included for quality assurance purposes. Plates were covered and incubated for 24 h at 37 °C. After incubation, minimum inhibitory concentrations (MIC) were read visually; all wells were plated to nutrient agar (Hi-Media) and incubated. The minimal bactericidal concentration (MBC) was defined as a 99.9% reduction in CFU from the starting inoculums after 24 h incubation interval.
For orientation: Dilution methods test growth across graded concentrations, often in twofold steps.

Another series has as its system S. aureus ATCC 25923. The series can be described thus: Broth microdilution MIC/MBC. In kind it is cell-based, Staphylococcus aureus. On the procedure: as §1, §2, §3
Series [1] in a line: MTT cytotoxicity assay. Conditions: human, HeLa cells; MTT, 24 h, mean ± SD; read-out: Cytotoxicty (LC50) HeLa cells. In kind it is cell-based, Human. Here is the method: (§4) HeLa (Human cervical cancer cell line, ATCC No. CCL-2) and Vero cells (African green monkey kidney cells, normal non-cancer cells, ATCC No. CCL-81), obtained from the American Type Culture Collection (ATCC) were used in this study. Cytotoxic activity was determined using the 3-(4,5-dimethylthiazol-2-yl)-2,5-diphenyltetrazolium bromide (MTT, Sigma, USA) assay reported by Mosmann for the HeLa and Vero cells. This cell viability assay is based on living cell‘s property to transform the MTT dye tetrazolium ring into a purple-colored formazan structure due to the action of mitochondrial and other dehydrogenases inside the cell. The color intensity yielded by the cell population is directly proportional to the number of viable cells, and one can quantify the absorbance measurements using mathematical parameters. Each test sample was dissolved in dimethylsulfoxide (DMSO) to give a stock solution. Compounds 1–3 were prepared from the stock solutions by serial dilution in RPMI 1640 to give a volume of 100 μL in each well of a microtiter plate (96-well). Each well was filled with 100 μL of cells at 2 × 10^5 cells/mL. The assay for each concentration of compound was performed in triplicates and the culture plates were kept at 37 °C with 5% (v/v) CO2 for 24 h. After removing the supernatant of each well and washing twice by PBS, 20 μL of MTT solution (5 mg/mL in PBS) and 100 μL of medium were then introduced. After 4 h of incubation, 100 μL of DMSO were added to each well to dissolve the formazan crystals and the absorbance values at 490 nm were measured with a microplate reader (Bio-RAD 680, USA). The relative cell viability (%) was expressed as a relative percentage of treated cells to the untreated control cells (TC/UC × 100). The rate of cell inhibition was calculated using the following formula: inhibition rate = [1- (ODtest/ODnegative control)] × 100%. The LC50 values were calculated as the concentration of test sample resulting in a 50% reduction of absorbance compared to untreated cells. Cells treated with 5-fluorouridine + RPMI 1640 served as positive control while cells left untreated + 1% (v/v) DMSO + RPMI 1640 were used as negative control.
A general note: Tetrazolium dyes change colour on reduction, which living cells bring about.

The subject of the next series is HeLa cells. The series is described as follows: MTT cytotoxicity assay. In kind it is cell-based, Human. Particulars: SI = LC50 on Vero cells / LC50 on HeLa cells. On the procedure:
as §4

Series [2] can be described thus: MTT cytotoxicity assay. In kind it is cell-based. Particulars: African green monkey, Vero cells, normal non-cancer cells, mean ± SD, read-out: Cytotoxicty (LC50) Vero cells. Here is the method:
as §4

Another series in a line: Hemolytic assay. In kind it is cell-based. Conditions: male, 1% human red blood cell suspension, 512 μg/mL (highest concentration tested), 1% human red blood cells, PBS pH 7.4, 37 °C. Here is the method:
Whole blood (10 mL) from a healthy person was collected into a conical tube containing heparin as an anticoagulant. Erythrocytes were harvested by centrifugation at room temperature for 10 min at 1,000 × g and were washed three times in PBS solution. The top layer (plasma) and the next, milky layer (buffy coat with a layer of platelets on top of it) were then carefully aspirated and discarded. The cell pellet was resuspended in 10 mL of PBS solution and mixed by gentle aspiration with a Pasteur pipette. This cell suspension was used immediately.
For the normal human red blood cells, which were in suspension, the cytotoxicity was evaluated as previously described. Compounds 1–3, at concentrations ranging from 32 to 512 μg/mL, were incubated with an equal volume of 1% human red blood cells in phosphate buffered saline (10 mM PBS, pH 7.4) at 37 °C for 1 h. Tetracycline was tested simultaneously. Non-hemolytic and 100% hemolytic controls were the buffer alone and the buffer containing 1% Triton X-100, respectively. Cell lysis was monitored by measuring the release of hemoglobin at 595 nm with a spectrophotometer (Thermo Scientific, USA). Percent hemolysis was calculated as follows: [(A595 of sample treated with compound - A595 of sample treated with buffer)/(A595 of sample treated with Triton X-100 – A595 of sample treated with buffer)] x 100.

Series [3] relates to studied microorganisms (six bacterial strains). The series can be described thus: Antibacterial spectrum over the six tested strains (broth microdilution). In kind it is cell-based. Particulars: out of 6 strains; concentrations up to 512 μg/mL. On the procedure: as §1, §3

Values after ≈ are worked out from the molar mass of the structure shown. Like-named read-outs stand apart in the source and are kept apart here.

The term MBC denotes the smallest concentration meeting the test's criterion for killing. Low readings indicate more potent killing, high ones less potent killing. One may read the MIC as the smallest concentration in the dilution series that meets the test's criterion for growth inhibition.

Turning to `C=C1[C@@H](C)C2[C@H](Cc3ccccc3)NC(=O)[C@@]23C(/C=C/C[C@H](C)C[C@@](C)(O)/C=C/[C@H]3OC(C)=O)[C@@H]1O` (stereo partly shown) [Compound 2, cytochalasin H], the MBC/MIC against S. flexneri SDINT (S. flexneri SDINT) and in the series on S. aureus ATCC 25923 (S. aureus ATCC 25923) was 1 throughout. In addition, the “Selectivity Index S. flexneri SDINT” value with S. flexneri SDINT (SI = LC50 on Vero cells / MIC) is recorded as 1.00. For the same compound, the MBC against S. flexneri SDINT (Shigella flexneri, S. flexneri SDINT, 99.9% reduction in CFU after 24 h) was 128 µg/mL (≈ 259 µM); against S. aureus ATCC 25923 (Staphylococcus aureus, ATCC25923, S. aureus ATCC 25923, 99.9% reduction in CFU after 24 h) it was 256 µg/mL (≈ 519 µM). Besides, the MIC in the series on S. flexneri SDINT (Shigella flexneri, S. flexneri SDINT, 24 h at 37 °C, read-out: MIC) came to 128 µg/mL (≈ 259 µM); in the series on S. aureus ATCC 25923 (Staphylococcus aureus, ATCC25923, S. aureus ATCC 25923, 24 h at 37 °C), 256 µg/mL (≈ 519 µM). Moreover, the “Selectivity Index S. aureus ATCC 25923” value in the series on S. aureus ATCC 25923 (SI = LC50 on Vero cells / MIC) was determined as 0.50. The values for the CC50 at 24 h in “MTT cytotoxicity assay [1]” and in the series “MTT cytotoxicity assay [2]” were 35.7 ± 1.31 µg/mL (≈ 72.3 µM) and 129.1 ± 1.2 µg/mL (≈ 262 µM), respectively. In addition, in the series with HeLa cells, the “Selectivity Index HeLa cells” value is recorded as 3.61. Further, the hemolysis at 1 h, 512 μg/mL in “Hemolytic assay” came out at 20.1%. The “share of the studied microorganisms on which inhibitory effects were noted” value in series [3] is 83.33%.

For the origin of these results see publication PMC5109658, “Antibacterial and cytotoxic cytochalasins from the endophytic fungus Phomopsis sp. harbored in Garcinia kola (Heckel) nut” (BMC Complementary and Alternative Medicine, 2016).
